By inhibition is commonly meant the drop in the measured response relative to a control, in per cent. Usually IC50 stands for the concentration at which inhibition is half-maximal.

Each structure is given as a SMILES string. The source made the active and inactive calls. The rule behind the calls is not given here.

Series [1] deals with BV-2. The series can be described thus: Antineuroinflammatory activity in mouse BV2 cells assessed as inhibition of LPS-induced nitric oxide production at 20 uM after 24 hrs by Griess reagent method. It is filed as functional. Conditions: for inhibition at 20 µM: BV-2, 24 h. In general terms: Nitrite, measured by Griess reagent, commonly stands in for NO production.
Series [2] can be described thus: Cytotoxicity against mouse BV2 cells by MTT assay. It is filed as cell-based, BV-2. As to conditions: read-out: INH.
Series [3] concerns BV-2. The series can be described thus: Antineuroinflammatory activity in mouse BV2 cells assessed as inhibition of LPS-induced nitric oxide production after 24 hrs by Griess reagent method. It is filed as functional, cell-based. As to conditions: for IC50: BV-2, 24 h.
Series [4] in a line: Effect on nitric oxide radical scavenging activity in sodium nitroprusside solution assessed as nitric oxide release after 15 mins by Griess reagent method. It is filed as physicochemical. As to conditions: 0.25 h.
Series [5] deals with T1, Nitric oxide synthase, inducible (Mus musculus) (UniProt P29477).
T1 sequence (whole entry): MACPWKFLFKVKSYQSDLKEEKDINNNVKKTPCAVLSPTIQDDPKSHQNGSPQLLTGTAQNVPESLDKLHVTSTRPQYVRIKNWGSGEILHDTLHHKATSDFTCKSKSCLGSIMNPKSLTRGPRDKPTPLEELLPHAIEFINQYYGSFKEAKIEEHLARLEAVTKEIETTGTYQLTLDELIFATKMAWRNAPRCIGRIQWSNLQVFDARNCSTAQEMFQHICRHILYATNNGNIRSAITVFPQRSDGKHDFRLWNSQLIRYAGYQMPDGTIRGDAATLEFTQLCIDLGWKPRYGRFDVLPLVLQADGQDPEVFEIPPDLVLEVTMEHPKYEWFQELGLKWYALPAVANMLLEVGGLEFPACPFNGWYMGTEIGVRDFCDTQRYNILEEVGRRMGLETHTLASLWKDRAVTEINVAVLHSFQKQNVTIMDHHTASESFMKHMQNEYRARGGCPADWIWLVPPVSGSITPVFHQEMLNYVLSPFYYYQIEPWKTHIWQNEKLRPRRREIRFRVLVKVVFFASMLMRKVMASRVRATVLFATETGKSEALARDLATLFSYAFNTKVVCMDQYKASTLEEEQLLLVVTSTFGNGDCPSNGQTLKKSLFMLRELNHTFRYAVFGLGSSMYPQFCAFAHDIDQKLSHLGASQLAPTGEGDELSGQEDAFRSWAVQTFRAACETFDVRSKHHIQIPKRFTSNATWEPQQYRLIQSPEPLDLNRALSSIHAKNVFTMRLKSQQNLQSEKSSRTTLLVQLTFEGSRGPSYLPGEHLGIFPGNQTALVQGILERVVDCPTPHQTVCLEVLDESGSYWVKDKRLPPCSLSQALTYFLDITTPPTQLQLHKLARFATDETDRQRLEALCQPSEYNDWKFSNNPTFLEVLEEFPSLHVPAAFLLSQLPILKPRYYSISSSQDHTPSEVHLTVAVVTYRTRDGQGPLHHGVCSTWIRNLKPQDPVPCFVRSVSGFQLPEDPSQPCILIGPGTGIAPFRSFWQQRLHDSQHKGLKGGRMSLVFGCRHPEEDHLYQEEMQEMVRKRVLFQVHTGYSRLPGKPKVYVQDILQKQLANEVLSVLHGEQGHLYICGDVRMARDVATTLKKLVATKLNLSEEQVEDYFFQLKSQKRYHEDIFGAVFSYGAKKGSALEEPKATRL
The series is described as follows: Inhibition of iNOS in LPS-stimulated mouse BV2 cells at 25 to 100 uM after 24 hrs by Griess reagent method. It is filed as cell-based. As to conditions: BV-2.

Series [6] has as its system BV-2. The series can be described thus: Inhibition of LPS-induced iNOS expression in mouse BV2 cells at 5 to 20 uM after 6 hrs by Western blot analysis. It is filed as functional, cell-based. For orientation: In western blotting, separated proteins are transferred to a membrane and probed.

Regarding `C=CCC1=C[C@@]2(OC)C(=CC1=O)O[C@H](c1ccc(OC)c(OC)c1)[C@H]2C` [KADSURENONE], the inhibition entry with BV-2 [1] is “inactive”. The cytotoxicity in series [2] was 21.3%.
For `C=CCC1=C[C@]2(OC)C(=CC1=O)O[C@H](c1ccc3c(c1)OCO3)[C@H]2C` [DENUDATIN A], the cytotoxicity in series [2] came to 23.2%.
In the case of `C=CCC1=C[C@]2(OC)[C@H](C)[C@@H](c3ccc(OC)c(OC)c3)[C@H](C1=O)[C@@H]2OC(C)=O`, the inhibition result in the series with BV-2 [1] is “inactive”.
As to `C=CCc1ccc(OC)c(OC(C)C(OC(C)=O)c2ccc(OC)c(OC)c2)c1OC` (stereo not given), the inhibition at 20 µM in the series with BV-2 [1] came out at 27.2%. In the series on BV-2 [3], the IC50 is 33.2 µM.
Turning to `C=CC[C@]12C(=O)C=C(OC)[C@]3(OC)[C@@H]1[C@]3(C)[C@H]2c1ccc2c(c1)OCO2`, the inhibition entry in the series on BV-2 [1] was “inactive”.
Take `CNC(=N)NCCC[C@H](N)C(=O)O` [TILARGININE]: in the series with BV-2 [1], the inhibition at 20 µM worked out at 55.3%. In addition, the IC50 in the series with BV-2 [3] came to 16.8 µM.
In the case of `C=CCC1=CC(OC)(/C(C)=C/c2ccc3c(c2)OCO3)C(OC)=CC1=O` (stereo not given) [FUTOQUINOL], the inhibition at 20 µM in the series on BV-2 [1] is 55.3%. Further, in the series with BV-2 [3], the inhibition result was “Dose-dependent effect” and the IC50 came to 16.8 µM.
As to `C=CCC1=CC2=C(OC)[C@H](C1=O)[C@]2(C)[C@H](O)c1ccc2c(c1)OCO2` [PIPERKADSIN C], the Activity entry in series [4] was “Not Active”. For the same molecule, the inhibition at 20 µM in the series with BV-2 [1] is 60.8%. Also, in the series on BV-2 [3], the inhibition result was “Dose-dependent effect” and the IC50 came to 14.6 µM. The result in series [5] was Active. Moreover, in the series on BV-2 [6], the outcome was inactive.
With `C=CCC1=CC(OC)(/C(C)=C/c2ccc(OC)c(OC)c2)C(OC)=CC1=O` (stereo not given) [WALLICHININE], the inhibition at 20 µM in the series on BV-2 [1] was found to be 18.5%. Further, in the series with BV-2 [3], the IC50 came out at 45.6 µM.
